What was measured:
[1] = tested on: VEGF-stimulated HUVEC proliferation (Human Umbilical Vein Endothelial cells); experiment: HUVEC Proliferation Assay; assay type: cell-based; conditions: VEGF 50 ng/mL, 72 h, CyQuant fluorescent dye, read-out: inhibited VEGF-stimulated HUVEC proliferation at a level
Procedure, shortened: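 HUVEC (passage 2–3) were seeded in DMEM+10% FBS for 22 h, then pre-incubated 2–3 h with 5-point, 5-fold compound dilutions (0.25% DMSO). They were then stimulated with VEGF (50 ng/mL final) for 72 h at 37 °C. Proliferation was read by CyQuant fluorescence (485/530 nm) after freeze-thaw, and IC50 came from a 4-parameter fit.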

[2] = target: T1, CYP 3A4 (Homo sapiens, UniProt P08684); experiment: Human Liver Microsome CYP 3A4 Inhibition; assay type: in vitro ADME; conditions: human liver microsomes, midazolam substrate; read-out: inhibited CYP3A4 microsomes, IC50
T1 construct: followed by 222.2 ml of 20 mg/mL HLM (BD Gentest); tissue BD Gentest; host or cells: human liver microsomes
T1 sequence (P08684 whole entry): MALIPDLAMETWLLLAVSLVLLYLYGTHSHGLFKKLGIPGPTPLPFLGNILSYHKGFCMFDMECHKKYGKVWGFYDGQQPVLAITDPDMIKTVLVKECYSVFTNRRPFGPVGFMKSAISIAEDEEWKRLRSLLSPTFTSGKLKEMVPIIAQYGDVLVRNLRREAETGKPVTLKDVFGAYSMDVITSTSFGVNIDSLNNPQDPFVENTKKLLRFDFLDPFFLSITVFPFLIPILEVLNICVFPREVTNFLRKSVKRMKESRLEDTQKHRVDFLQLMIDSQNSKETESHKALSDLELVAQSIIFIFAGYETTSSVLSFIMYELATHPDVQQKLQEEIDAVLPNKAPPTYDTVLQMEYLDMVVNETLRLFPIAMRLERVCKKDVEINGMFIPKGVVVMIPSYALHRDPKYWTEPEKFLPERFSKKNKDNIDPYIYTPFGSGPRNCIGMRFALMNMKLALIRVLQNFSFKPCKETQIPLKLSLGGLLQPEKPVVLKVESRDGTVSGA
Description: Determining the IC-50 for Human Liver Microsome CYP 3A4 Inhibition
Postassium Phosphate Buffer pH 7.4 (39.667 mL) is chilled in an ice bath and added to a 50 ml plastic tube. A 2 mM midazolam solution is prepared. 111.1 ul of 2 mM midazolam is added to the buffer followed by 222.2 ml of 20 mg/mL HLM (BD Gentest). The incubation mixture was gently inverted and equilibrated at 37° C. for 5 min. A stock inhibitor solution is prepared, such as in DMSO. Incubation mixture (801 ul) is added into 96-well, 1.2 mL plastic tubes. Inhibitor is added at various concentrations (e.g. 30 uM to 120 nM). The tubes are sealed and mix by inverting 5 times gently. The incubation mixture containing inhibitor (270 uL) is added by aliquot into wells of a 1 mL, 96-well block (duplicate). The block is placed into a 37° C. water bath and equilibrated for 3 min. 10 mM NADPH (30 ml) is added to all samples. After 5 minutes, the reactions are stopped by adding 300 ml of Quench Solution [0.1% TFA in CH3CN]. 1′-OH-Midazolam-d313C (2 mg/mL 30 uL) is added, the block is gently vortexed then centrifuged at 3000 rpm for 10 minutes at 4° C. 50 μL of supernatant from all samples is added by aliquot into a shorter, 96-well block. The aliquoted supernatants are pooled with other assay(s) and HPLC Grade Water (50 ul) is added to all samples. After covering and shaking by vortex gently for 2 minutes, the solutions were analyzed by LC-MS (API 3000,5% MeOH w/0.1% AcOH to 95% MeOH w/0.1% AcOH). 37 nM ketoconazole is used as a control.

[3] = target: T2, CYP 2D6 (Homo sapiens, UniProt P10635); experiment: Human Liver Microsome CYP 2D6 Inhibition; assay type: in vitro ADME; conditions: human liver microsomes, bufuralol substrate; read-out: inhibited CYP2D6 microsomes, IC50
T2 construct: followed by 555.6 ml of 20 mg/mL HLM (BD Gentest); tissue BD Gentest; host or cells: human liver microsomes
T2 sequence (P10635 whole entry): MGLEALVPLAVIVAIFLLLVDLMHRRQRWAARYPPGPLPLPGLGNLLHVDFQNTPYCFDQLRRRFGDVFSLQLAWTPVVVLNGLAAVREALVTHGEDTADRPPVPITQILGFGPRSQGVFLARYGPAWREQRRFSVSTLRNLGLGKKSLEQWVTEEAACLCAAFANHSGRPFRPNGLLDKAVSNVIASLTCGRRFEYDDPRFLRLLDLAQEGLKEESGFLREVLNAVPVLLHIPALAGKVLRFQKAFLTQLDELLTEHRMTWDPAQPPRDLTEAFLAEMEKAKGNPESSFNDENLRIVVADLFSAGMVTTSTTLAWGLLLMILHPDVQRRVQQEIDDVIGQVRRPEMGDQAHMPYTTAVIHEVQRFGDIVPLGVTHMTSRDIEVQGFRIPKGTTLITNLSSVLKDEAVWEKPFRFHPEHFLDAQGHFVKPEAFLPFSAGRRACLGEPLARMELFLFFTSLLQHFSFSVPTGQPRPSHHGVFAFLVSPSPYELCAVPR
Procedure, shortened: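 Pooled human liver microsomes with bufuralol in potassium phosphate pH 7.4, preincubated with inhibitor at 37 °C; reaction started with NADPH, quenched after 5 min with 0.1% TFA in acetonitrile. 1′-OH-bufuralol quantified by LC-MS with deuterated internal standard; IC50 determined, quinidine 500 nM as control.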

| IC50 [2] | IC50 [3] | Compound | IC50 [1] |
| --- | --- | --- | --- |
| > 20 µM | > 20 µM | CC(C)(C)c1ccc(NC(=O)c2cc(F)cnc2NCc2ccnc3[nH]ncc23)cc1 [Example 125, N-(4-(1,1-Dimethylethyl)phenyl)-5-fluoro-2-((1H-pyrazolo[3,4-b]pyridin-4-ylmethyl)amino)-3-pyridinecarboxamide] | < 0.5 µM |
| > 20 µM | > 20 µM | CN(C)CC(=O)Nc1cc(NC(=O)c2cccnc2NCc2ccnc3[nH]ccc23)ccc1C(C)(C)C [Example 59, N-[4-tert-Butyl-3-(2-dimethylamino-acetylamino)-phenyl]-2-[(1H-pyrrolo[2,3-b]pyridin-4-ylmethyl)-amino]-nicotinamide] | < 0.5 µM |
| > 20 µM | > 20 µM | CC(C)c1ccc(NC(=O)c2cc(F)cnc2NCc2ccnc3[nH]ncc23)cc1 [Example 123, 5-Fluoro-N-(4-(1-methylethyl)phenyl)-2-((1H-pyrazolo[3,4-b]pyridin-4-ylmethyl)amino)-3-pyridinecarboxamide] | < 0.5 µM |
| > 20 µM | > 20 µM | CC(C)(C)c1cc(NC(=O)c2cccnc2NCc2ccnc3[nH]ccc23)no1 [Example 49, N-(5-tert-butylisoxazol-3-yl)-2-[(1H-pyrrolo[2,3-b]pyridin-4-ylmethyl)amino]nicotinamide] | < 0.5 µM |
| > 20 µM | > 20 µM | CC(C)(C)c1ccc(NC(=O)c2cccnc2NCc2ccnc3c2CCN3)cc1 [Example 28, N-(4-tert-Butylphenyl)-2-[(2,3-dihydro-1H-pyrrolo[2,3-b]pyridin-4-ylmethyl)amino]nicotinamide] | < 0.5 µM |
| > 20 µM | > 20 µM | O=C(Nc1cc(OC[C@H]2CCCO2)cc(C(F)(F)F)c1)c1cccnc1NCc1ccnc2[nH]ccc12 [Example 36, 2-[(1H-pyrrolo[2,3-b]pyridin-4-ylmethyl)amino]-N-[3-[(2R)-tetrahydrofuran-2-ylmethoxy]-5-(trifluoromethyl)phenyl]nicotinamide] | < 0.5 µM |
| > 20 µM | > 20 µM | CC1(C)CN(C(=O)[C@@H]2CCCO2)c2cc(NC(=O)c3cccnc3NCc3ccnc4[nH]ccc34)ccc21 [Example 34, N-{3,3-dimethyl-1-[(2S)-tetrahydrofuran-2-ylcarbonyl]-2,3-dihydro-1H-indol-6-yl}-2-[(1H-pyrrolo[2,3-b]pyridin-4-ylmethyl)amino]nicotinamide] | < 0.5 µM |
| > 20 µM | > 20 µM | Cc1ccc(NC(=O)c2cc(F)cnc2NCc2ccnc3[nH]ccc23)cc1C(F)(F)F [Example 112, 5-fluoro-N-(4-methyl-3-(trifluoromethyl)phenyl)-2-((1H-pyrrolo[2,3-b]pyridin-4-ylmethyl)amino)-3-pyridinecarboxamide] | < 0.5 µM |
| > 20 µM | > 20 µM | Cc1nc2cc(NC(=O)c3cccnc3NCc3ccnc4[nH]ccc34)ccc2s1 [Example 48, N-(2-methyl-1,3-benzothiazol-5-yl)-2-[(1H-pyrrolo[2,3-b]pyridin-4-ylmethyl)amino]nicotinamide] | < 0.5 µM |
| > 20 µM | > 20 µM | CC1(C)CNC(=O)c2cc(NC(=O)c3cccnc3NCc3ccnc4[nH]ccc34)ccc21 [Example 56, N-(4,4-Dimethyl-1-oxo-1,2,3,4-tetrahydro-isoquinolin-7-yl)-2-[(1H-pyrrolo[2,3-b]pyridin-4-ylmethyl)-amino]-nicotinamide] | < 0.5 µM |
| > 20 µM | > 20 µM | CC1(C)CNc2cc(NC(=O)c3cccnc3NCc3ccnc4[nH]ccc34)ccc21 [Example 16, N-(3,3-Dimethyl-2,3-dihydro-1H-indol-6-yl)-2-[(1H-pyrrolo[2,3-b]pyridin-4-ylmethyl)amino]nicotinamide] | < 0.5 µM |
| > 20 µM | > 20 µM | Cc1cc(NC(=O)c2cc(F)cnc2NCc2ccnc3[nH]ccc23)ccc1C(C)C [Example 83, 5-fluoro-N-(3-methyl-4-(1-methylethyl)phenyl)-2-((1H-pyrrolo[2,3-b]pyridin-4-ylmethyl)amino)-3-pyridinecarboxamide] | < 0.5 µM |
| > 20 µM | > 20 µM | O=C(Nc1ccc(C(F)(F)C(F)(F)F)cc1)c1cc(F)cnc1NCc1ccnc2[nH]ccc12 [Example 76, 5-fluoro-N-(4-(pentafluoroethyl)phenyl)-2-((1H-pyrrolo[2,3-b]pyridin-4-ylmethyl)amino)-3-pyridinecarboxamide] | < 0.5 µM |
| 9.8 µM | 10 µM | CC1(C)CNCc2cc(NC(=O)c3cccnc3NCc3ccnc4[nH]ccc34)ccc21 [Example 1, N-(4,4-Dimethyl-1,2,3,4-tetrahydroisoquinolin-7-yl)-2-[(1H-pyrrolo[2,3-b]pyridin-4-ylmethyl)amino]nicotinamide] | < 0.5 µM |
| > 20 µM | > 20 µM | CC1(C)CNc2cc(NC(=O)c3cccnc3NCc3ccnc4c3CCN4)ccc21 [Example 32, 2-[(2,3-Dihydro-1H-pyrrolo[2,3-b]pyridin-4-ylmethyl)amino]-N-(3,3-dimethyl-2,3-dihydro-1H-indol-6-yl)nicotinamide] | < 0.5 µM |
| > 20 µM | > 20 µM | O=C(Nc1ccc2c(c1)CNCC21CC1)c1cccnc1NCc1ccnc2[nH]ccc12 [Example 10, N-(4-Spiro-1′-cyclopropane-1,2,3,4-tetrahydroisoquinolin-7-yl)-2-[(1H-pyrrolo[2,3-b]pyridin-4-ylmethyl)amino]nicotinamide] | < 0.5 µM |
| > 20 µM | > 20 µM | CC1(C)CCCNc2cc(NC(=O)c3cccnc3NCc3ccnc4[nH]ccc34)ccc21 [Example 64, N-(5,5-Dimethyl-2,3,4,5-tetrahydro-1H-benzo[b]azepin-8-yl)-2-[(1H-pyrrolo[2,3-b]pyridin-4-ylmethyl)-amino]-nicotinamide] | < 0.5 µM |
| > 20 µM | > 20 µM | CC1(C)CCNc2cc(NC(=O)c3cccnc3NCc3ccnc4[nH]ccc34)ccc21 [Example 9, N-(4,4-Dimethyl-1,2,3,4-tetrahydroquinolin-7-yl)-2-[(1H-pyrrolo[2,3-b]pyridin-4-ylmethyl)amino]nicotinamide] | < 0.5 µM |
| > 20 µM | > 20 µM | CC(C)(C)c1ccc(NC(=O)c2cccnc2NCc2ccnc3[nH]ccc23)cc1 [Example 5, N-(4-tert-Butylphenyl)-2-[(1H-pyrrolo[2,3-b]pyridin-4-ylmethyl)amino]nicotinamide] | < 0.5 µM |
| > 20 µM | > 20 µM | Cc1cc(NC(=O)c2cc(F)cnc2NCc2ccnc3[nH]ncc23)ccc1C(C)C [Example 121, 5-Fluoro-N-(3-methyl-4-(1-methylethyl)phenyl)-2-((1H-pyrazolo[3,4-b]pyridin-4-ylmethyl)amino)-3-pyridinecarboxamide] | < 0.5 µM |
| > 20 µM | > 20 µM | O=C(Nc1ccc(OC(F)(F)F)cc1)c1cc(F)cnc1NCc1ccnc2[nH]ncc12 [Example 126, 5-Fluoro-2-((1H-pyrazolo[3,4-b]pyridin-4-ylmethyl)amino)-N-(4-((trifluoromethyl)oxy)phenyl)-3-pyridinecarboxamide] | < 0.5 µM |
| > 20 µM | > 20 µM | O=C(Nc1ccc2ccccc2c1)c1cccnc1NCc1ccnc2[nH]ccc12 [Example 50, N-Naphthalen-2-yl-2-[(1H-pyrrolo[2,3-b]pyridin-4-ylmethyl)-amino]-nicotinamide] | < 0.5 µM |

Source: patent publication US8247556B2, “Method for preparing 6-substituted-7-aza-indoles” (Amgen Inc., priority 2005, dated 2012)
